≈ marks a conversion by molar mass, not a printed value.
Key:
[1] = Kinetic solubility in aqueous PBS buffer (HPLC-MS); format: physicochemical; settings: kinetic from dmso stock, DMSO stock mixed with aqueous PBS buffer, filtered, read-out: Kinetic Solubility
Method: In another exemplary method, central nervous system multiparameter optimization (CNS MPO) score and kinetic solubility of selected compounds was determined. CNS MPO score for compounds and their isomers disclosed herein were calculated using an algorithm that uses a weighted scoring function assessing 6 key physicochemical properties (clogP, clogD, MW, TPSA, HBD, and pKa) for blood-brain-barrier (BBB penetration). CNS MPO score ranged from 0 and 6.0 with scores≥4.0 used as a cut-off to select compounds that can have a high probability of accumulating in the CNS. Kinetic solubility of a compound is the maximum solubility of the fastest precipitating species of the compound. Kinetic solubility was determined by preparing a concentrated stock solution for compounds and their isomers disclosed herein in an organic solvent (DMSO), after which the solution was mixed with an aqueous PBS buffer and then filtered. Filtrate was tested to quantify the kinetic solubilty using HPLC-MS calibration curve. The CNS MPO Score and kinetic solubility of the compounds tested are provided in Table 7 where “ND” means not determined.

LNCaP cells = assay: Cell viability (AlamarBlue), LNCaP prostate cancer cells; format: cell-based, human; design: key to EC50 (μM) in LNCaP cells: Inactive: less than 50% inhibition at the highest concentration tested at 50 μM; settings: 72 hours of treatment; for EC50: Homo sapiens, LNCaP, 72 h
Method: (§1) In another exemplary method, half maximal effective concentration (EC50) was determined for some compounds and their isomers as disclosed herein in a variety of human cancer cell lines. In brief, cells from two prostate cancer cell lines (LNCaP, 22RV1), one glioblastoma cell line (U87), one breast cancer cell line (MCF7), a glioma cell line (LN18), a normal prostate cell line (RWPE1), and a glioblastoma cell line (T98G) were plated in a multi-well plate. After 24 hours, one of the compounds herein was added to the well at increasing concentrations. After 72 hours of treatment, cell viability was assessed using AlamrBlue® (Invitrogen) and fluorescence was read using the CLARIOstar Plus Multilabel Plate Reader (BMG Labtech). Samples were normalized to no treatment controls. EC50 values were determined using GraphPad Prism.

22RV1 cells = assay: Cell viability (AlamarBlue), 22RV1 prostate cancer cells; format: cell-based, human; design: key to EC50 (μM) in 22RV1 cells: Inactive: less than 50% inhibition at the highest concentration tested at 50 μM; settings: 72 hours of treatment; for EC50: Homo sapiens, 22Rv1, 72 h
Method: as §1

U87 cells = assay: Cell viability (AlamarBlue), U87 glioblastoma cells; format: cell-based, human; design: key to EC50 (μM) in U87 cells: Inactive: less than 50% inhibition at the highest concentration tested at 50 μM; settings: 72 hours of treatment; for EC50: Homo sapiens, U-87 MG, 72 h
Method: as §1

Row | Compound | solubility kinetic [1] | EC50 (μM) in LNCaP cells (LNCaP cells) | EC50 (μM) in 22RV1 cells (22RV1 cells) | EC50 (μM) in U87 cells (U87 cells) | EC50 (22RV1 cells) | EC50 (U87 cells) | EC50 (LNCaP cells)
1 | COC1CCC(C(=O)NC(=O)Nc2ccc(Oc3ccc(C#N)cn3)c(C)c2)CC1 (centres unmarked) [Compound 6, 3-{4-[(5-cyanopyridin-2-yl)oxy]-3-methylphenyl}-1-(4-methoxycyclohexanecarbonyl)urea] | 0.53 µM (≈ 0.216 µg/mL) | – | – | – | – | – | –
2 | COC1CC(C(=O)NC(=O)Nc2ccc(Oc3ccc(F)cn3)c(C)c2)C1 (centres unmarked) [Compound 15, N-((4-((5-fluoropyridin-2-yl)oxy)-3-methylphenyl)carbamoyl)-3-methoxycyclobutane-1-carboxamide] | 14.7 µM (≈ 5.48 µg/mL) | – | – | – | – | – | –
3 | COC1CC(C(=O)NC(=O)Nc2ccc(Oc3ccc(C#N)cn3)c(C)c2)C1 (centres unmarked) [Compound 16, N-((4-((5-cyanopyridin-2-yl)oxy)-3-methylphenyl)carbamoyl)-3-methoxycyclobutane-1-carboxamide] | 11.6 µM (≈ 4.41 µg/mL) | – | – | – | – | – | –
4 | COC1CC(C(=O)NC(=O)Nc2ccc(Oc3ncc(Cl)cn3)c(C)c2)C1 (centres unmarked) [Compound 20, N-((4-((5-chloropyrimidin-2-yl)oxy)-3-methylphenyl)carbamoyl)-3-methoxycyclobutane-1-carboxamide] | 7.1 µM (≈ 2.77 µg/mL) | – | – | – | – | – | –
5 | Cc1cc(NC(=O)NC(=O)C2CC(OCC3CC3)C2)ccc1Oc1ccc(Cl)cn1 (centres unmarked) [Compound 40, N-((4-((5-chloropyridin-2-yl)oxy)-3-methylphenyl)carbamoyl)-3-(cyclopropylmethoxy)cyclobutane-1-carboxamide] | – | Inactive | Inactive | Inactive | – | – | –
6 | Cc1cc(NC(=O)NC(=O)C2CC(OCC3CC3)C2)ccc1Oc1ncc(Cl)cn1 (centres unmarked) [Compound 41, N-((4-((5-chloropyrimidin-2-yl)oxy)-3-methylphenyl)carbamoyl)-3-(cyclopropylmethoxy)cyclobutane-1-carboxamide] | – | Inactive | – | – | 46 µM | 49 µM | –
7 | COC1CCC(C(=O)NC(=O)Nc2ccc(Oc3cncnc3)c(C)c2)CC1 (centres unmarked) [Compound 42, 4-methoxy-N-((3-methyl-4-(pyrimidin-5-yloxy)phenyl)carbamoyl)cyclohexane-1-carboxamide] | – | – | – | – | 37 µM | 41.5 µM | 19.8 µM
8 | COC1CC(C(=O)NC(=O)Nc2ccc(Oc3cncnc3)c(C)c2)C1 (centres unmarked) [Compound 43, 3-methoxy-N-((3-methyl-4-(pyrimidin-5-yloxy)phenyl)carbamoyl)cyclobutane-1-carboxamide] | – | – | – | – | 39 µM | 34 µM | 21.8 µM
9 | COC1CC(C(=O)NC(=O)Nc2ccc(Oc3nccs3)c(C)c2)C1 (centres unmarked) [Compound 45, 3-methoxy-N-((3-methyl-4-(thiazol-2-yloxy)phenyl)carbamoyl)cyclobutane-1-carboxamide] | 58.4 µM (≈ 21.1 µg/mL) | – | – | – | – | – | –
10 | COC1CCC(C(=O)NC(=O)Nc2ccc(Oc3cnc(N4CCOCC4)nc3)c(C)c2)CC1 (centres unmarked) [Compound 46, 4-methoxy-N-((3-methyl-4-((2-morpholinopyrimidin-5-yl)oxy)phenyl)carbamoyl)cyclohexane-1-carboxamide] | 0.39 µM (≈ 0.183 µg/mL) | – | – | Inactive | 8 µM | – | 2.9 µM
11 | COCCOC1CC(C(=O)NC(=O)Nc2ccc(Oc3ncc(Cl)cn3)c(C)c2)C1 (centres unmarked) [Compound 48, N-((4-((5-chloropyrimidin-2-yl)oxy)-3-methylphenyl)carbamoyl)-3-(2-methoxyethoxy)cyclobutane-1-carboxamide] | 84.2 µM (≈ 36.6 µg/mL) | – | – | – | 3.2 µM | 6.4 µM | 12.4 µM
12 | COCCOC1CC(C(=O)NC(=O)Nc2ccc(Oc3ccc(Cl)cn3)c(C)c2)C1 (centres unmarked) [Compound 49, N-((4-((5-chloropyridin-2-yl)oxy)-3-methylphenyl)carbamoyl)-3-(2-methoxyethoxy)cyclobutane-1-carboxamide] | 37.5 µM (≈ 16.3 µg/mL) | – | – | – | 1.3 µM | 3.7 µM | 11.8 µM
13 | COCCOC1CCC(C(=O)NC(=O)Nc2ccc(Oc3ncc(Cl)cn3)c(C)c2)CC1 (centres unmarked) [Compound 50, N-((4-((5-chloropyrimidin-2-yl)oxy)-3-methylphenyl)carbamoyl)-4-(2-methoxyethoxy)cyclohexanecarboxamide] | – | Inactive | Inactive | Inactive | – | – | –

Now from value to compound:

Row | solubility kinetic [1] | EC50 (μM) in LNCaP cells (LNCaP cells) | EC50 (μM) in 22RV1 cells (22RV1 cells) | EC50 (μM) in U87 cells (U87 cells) | EC50 (22RV1 cells) | EC50 (U87 cells) | EC50 (LNCaP cells) | Compound
14 | – | – | – | – | 20 µM | 29 µM | 11.1 µM | COC1CCC(C(=O)NC(=O)Nc2ccc(Oc3cnc(N4CC5(COC5)C4)nc3)c(C)c2)CC1 (centres unmarked) [Compound 51, N-((4-((2-(2-oxa-6-azaspiro[3.3]heptan-6-yl)pyrimidin-5-yl)oxy)-3-methylphenyl)carbamoyl)-4-methoxycyclohexanecarboxamide]
15 | – | – | – | Inactive | 36 µM | – | 25.3 µM | COC1CC(C(=O)NC(=O)Nc2ccc(Oc3cnc(N4CC5(COC5)C4)nc3)c(C)c2)C1 (centres unmarked) [Compound 52, -((4-((2-(2-oxa-6-azaspiro[3.3]heptan-6-yl)pyrimidin-5-yl)oxy)-3-methylphenyl)carbamoyl)-3-methoxycyclobutanecarboxamide]
16 | – | Inactive | Inactive | Inactive | – | – | – | Cc1cc(NC(=O)NC(=O)C2CCC(O)CC2)ccc1Oc1ncc(Cl)cn1 (centres unmarked) [Compound 53, N-((4-((5-chloropyrimidin-2-yl)oxy)-3-methylphenyl)carbamoyl)-4-hydroxycyclohexane-1-carboxamide]
17 | – | Inactive | Inactive | Inactive | – | – | – | COCCOC1CCC(C(=O)NC(=O)Nc2ccc(Oc3ncc(Cl)cn3)c(F)c2)CC1 (centres unmarked) [Compound 54, N-((4-((5-chloropyrimidin-2-yl)oxy)-3-fluorophenyl)carbamoyl)-4-(2-methoxyethoxy)cyclohexane-1-carboxamide]
18 | – | Inactive | – | Inactive | 30.6 µM | – | – | COC1CC(C(=O)NC(=O)Nc2ccc(Oc3nncs3)c(C)c2)C1 (centres unmarked) [Compound 55, N-((4-((1,3,4-thiadiazol-2-yl)oxy)-3-methylphenyl)carbamoyl)-3-methoxycyclobutanecarboxamide]
19 | 75 µM (≈ 27.2 µg/mL) | – | – | – | 6.3 µM | 13.5 µM | 3.1 µM | COC1CC(C(=O)NC(=O)Nc2ccc(Oc3ncns3)c(C)c2)C1 (centres unmarked) [Compound 57, N-((4-((1,2,4-thiadiazol-5-yl)oxy)-3-methylphenyl)carbamoyl)-3-methoxycyclobutane-1-carboxamide]
20 | – | – | – | – | 1.6 µM | 0.35 µM | 0.93 µM | COC1CC(C(=O)NC(=O)Nc2ccc(Oc3ncc(C(F)(F)F)s3)c(C)c2)C1 (centres unmarked) [Compound 61, 3-methoxy-N-((3-methyl-4-((5-(trifluoromethyl)thiazol-2-yl)oxy)phenyl)carbamoyl)cyclobutane-1-carboxamide]
21 | – | – | – | – | 1 µM | 5.4 µM | 21 µM | COC1CC(C(=O)NC(=O)Nc2ccc(Oc3ncc(C#N)s3)c(C)c2)C1 (centres unmarked) [Compound 62, N-((4-((5-cyanothiazol-2-yl)oxy)-3-methylphenyl)carbamoyl)-3-methoxycyclobutane-1-carboxamide]
22 | – | Inactive | Inactive | Inactive | – | – | – | COC1(C(=O)NC(=O)Nc2ccc(Oc3ncc(Cl)cn3)c(C)c2)CC1 [Compound 66, N-((4-((5-chloropyrimidin-2-yl)oxy)-3-methylphenyl)carbamoyl)-1-methoxycyclopropane-1-carboxamide]
23 | – | Inactive | Inactive | Inactive | – | – | – | COC1(C(=O)NC(=O)Nc2ccc(Oc3nccs3)c(C)c2)CC1 [Compound 68, 1-methoxy-N-((3-methyl-4-(thiazol-2-yloxy)phenyl)carbamoyl)cyclopropane-1-carboxamide]
24 | – | Inactive | Inactive | Inactive | – | – | – | COC1(C(=O)NC(=O)Nc2ccc(Oc3ncccn3)c(C)c2)CC1 [Compound 69, 1-methoxy-N-((3-methyl-4-(pyrimidin-2-yloxy)phenyl)carbamoyl)cyclopropane-1-carboxamide]
25 | 2.21 µM (≈ 0.89 µg/mL) | – | – | – | – | 0.06 µM | – | COC12CC(C(=O)NC(=O)Nc3ccc(Oc4ncc(Cl)cn4)c(C)c3)(C1)C2 [Compound 85, N-((4-((5-chloropyrimidin-2-yl)oxy)-3-methylphenyl)carbamoyl)-3-methoxybicyclo[1.1.1]pentane-1-carboxamide]
